Test results: patent US20170065579A1, “Sustained Release Low Dose Formulations and Uses Thereof” (priority 2015, published 2017)

Key:
[1] = naltrexone release from payloaded matrices (in vitro release); type: physicochemical; details: in contrast to the hydrochloride form
Experimental: The number of days of release are shown on the horizontal axis (X axis). The cumulative percentage of naltrexone release is shown on the vertical axis (Y axis). […] Release was measured under conditions of about 37 degrees Celsius. Before release was measured, steps had been taken to incorporate (payload) naltrexone into the matrices.
The number of days of release are shown on the horizontal axis (X axis). The cumulative percentage of naltrexone release is shown on the vertical axis (Y axis). Before release was measured, steps had been taken to incorporate (payload) naltrexone into the matrices.
Exemplary Formula #1—PBS Buffer Containing 0.01% Sodium Azide as Suspension and Release Medium: • 1. To a 1 L volumetric flask, add the contents of 1 package of ready-to-use powder for PBS • 2. Add sodium azide ([…]) • 3. Add Millipore water to the calibration mark • 4. Dissolve all solids • 5. Store at 8 degrees celsius (max)

[2] = tested on: opioid receptor; details: cited from earlier work
[3] = low dosages, about 3-5 mg/day; cited from earlier work
[4] = in vivo, cited from earlier work

Row | Compound | release profiles [1] | potency relative to naloxone [2] | symptom severity [3] | oral bioavailability ([4]; po) | duration of effect [4]
1 | O=C1CC[C@@]2(O)[C@H]3Cc4ccc(O)c5c4[C@@]2(CCN3CC2CC2)[C@H]1O5 [naltrexone base, naltrexone] | meet preferred target criteria | – | – | – | –
2 | O=C1CC[C@@]2(O)[C@H]3Cc4ccc(O)c5c4[C@@]2(CCN3CC2CC2)[C@H]1O5 [naltrexone] | – | twice the potency | reduce symptom severity | good oral bioavailability | can last for a day
